As a reminder, the IC50 is the concentration that inhibits the measured activity by half. Higher therefore signals lower potency. As a reminder, the DC50 is the midpoint of the concentration-degradation curve. The low end stands for a more potent degrader, the high end for a less potent degrader.

Experiment [1] concerns human prostate cancer LNCaP cells. Kind of experiment: Cytotoxic action on LNCaP cells (WST-8, 96 hr). The settings on record: 96 hr culture. It counts as cell-based. An outline of the steps: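 Cells were seeded in 10% FBS/RPMI1640 and cultured overnight at 37° C, 5% CO2, then exposed to compound (DMSO stock diluted in medium) for 96 hr. Viable cell number was measured with WST-8. IC50 is the concentration giving 50% survival versus untreated cells, interpolated linearly between the two bracketing points.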
In general terms: Formazan colour is commonly taken as a measure of viable cells.

The target of experiment [2] is BRD4 protein (Homo sapiens (Human), UniProt O60885). Kind of experiment: BRD4 protein degradation inducing action in LNCaP cells (immunofluorescence, 6 hr). It counts as cell-based. The settings on record: anti-BRD4 fluorescence intensity. An outline of the steps: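 Read-out is BRD4 immunofluorescence intensity (560/572 nm) after 6 hr compound treatment of LNCaP cells in 10% FBS/RPMI1640, with fixation, permeabilization and anti-BRD4 staining. Linear interpolation between the two concentrations flanking 50% of untreated intensity gives DC50.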

`COC(=O)C[C@@H]1N=C(c2ccc(-c3ccc4oc(C(=O)NCc5ccc(S(=O)(=O)Nc6ccc(C)c7c(C#N)c[nH]c67)cc5)cc4c3)cc2)c2c(sc(C)c2C)-n2c(C)nnc21` [Example 35, methyl [(6S)-4-(4-{2-[({4-[(3-cyano-4-methyl-1H-indol-7-yl)sulfamoyl]phenyl}methyl)carbamoyl]-1-benzofuran-5-yl}phenyl)-2,3,9-trimethyl-6H-thieno[3,2-f][1,2,4]triazolo[4,3-a][1,4]diazepin-6-yl]acetate] displayed a 50% inhibitory concentration (IC50) in experiment [1] of 7.2 nM. The molecule also gave a DC50 in experiment [2] of 2.7 nM.
For `CCc1ccc(NS(=O)(=O)c2ccc(CNC(=O)c3cc(F)c(-c4ccc(C5=N[C@@H](CC(=O)OC)c6nnc(C)n6-c6sc(C)c(C)c65)cc4)cc3C)cc2)c2[nH]cc(C#N)c12` [Example Compound 120, methyl [(6S)-4-{4′-[({4-[(3-cyano-4-ethyl-1H-indol-7-yl)sulfamoyl]phenyl}methyl)carbamoyl]-2′-fluoro-5′-methyl[1,1′-biphenyl]-4-yl}-2,3,9-trimethyl-6H-thieno[3,2-f][1,2,4]triazolo[4,3-a][1,4]diazepin-6-yl]acetate], in that order: 0.41 nM and 0.26 nM.
Regarding `COC(=O)C[C@@H]1N=C(c2ccc(C3=CCN(C(=O)NCc4ccc(S(=O)(=O)Nc5ccc(C)c6c(C#N)c[nH]c56)cc4)CC3)cc2)c2c(sc(C)c2C)-n2c(C)nnc21` [Example 21, methyl [(6S)-4-(4-{1-[({4-[(3-cyano-4-methyl-1H-indol-7-yl)sulfamoyl]phenyl}methyl)carbamoyl]-1,2,3,6-tetrahydropyridin-4-yl}phenyl)-2,3,9-trimethyl-6H-thieno[3,2-f][1,2,4]triazolo[4,3-a][1,4]diazepin-6-yl]acetate], it took 9.8 nM to reach half-maximal inhibition in experiment [1] (IC50). The molecule further returned a DC50 in experiment [2] of 6.7 nM.
In experiment [1], `COC(=O)C[C@@H]1N=C(c2ccc(-c3ccc(C(=O)NCc4ccc(S(=O)(=O)Nc5ccc(C)c6c(C#N)c[nH]c56)cc4)cc3C)cc2)c2c(sc(C)c2C)-n2c(C)nnc21` [Example 75, methyl [(6S)-4-{4′-[({4-[(3-cyano-4-methyl-1H-indol-7-yl)sulfamoyl]phenyl}methyl)carbamoyl]-2′-methyl[1,1′-biphenyl]-4-yl}-2,3,9-trimethyl-6H-thieno[3,2-f][1,2,4]triazolo[4,3-a][1,4]diazepin-6-yl]acetate] displayed an IC50 of 0.47 nM. The DC50 in experiment [2] was determined as 0.32 nM.
In turn, `Cc1sc2c(c1C)C(c1ccc(-c3cnc(C(=O)NCc4ccc(S(=O)(=O)Nc5ccc(C)c6c(C#N)c[nH]c56)cc4)nc3)cc1)=N[C@@H](CC(=O)OC(C)(C)C)c1nnc(C)n1-2` [Example Compound 147, t-butyl [(6S)-4-(4-{2-[({4-[(3-cyano-4-methyl-1H-indol-7-yl)sulfamoyl]phenyl}methyl)carbamoyl]pyrimidin-5-yl}phenyl)-2,3,9-trimethyl-6H-thieno[3,2-f][1,2,4]triazolo[4,3-a][1,4]diazepin-6-yl]acetate] had an IC50 in experiment [1] of 0.42 nM. The same molecule showed a half-maximal degradation concentration (DC50) in experiment [2] of 0.13 nM.
The matching figures for `COC(=O)C[C@@H]1N=C(c2ccc(-c3cc(F)c(C(=O)NCc4ccc(S(=O)(=O)Nc5ccc(C)c6c(C#N)c[nH]c56)cc4)cc3F)cc2)c2c(sc(C)c2C)-n2c(C)nnc21` [Example 82, methyl [(6S)-4-{4′-[({4-[(3-cyano-4-methyl-1H-indol-7-yl)sulfamoyl]phenyl}methyl)carbamoyl]-2′,5′-difluoro[1,1′-biphenyl]-4-yl}-2,3,9-trimethyl-6H-thieno[3,2-f][1,2,4]triazolo[4,3-a][1,4]diazepin-6-yl]acetate]: 0.27 nM and 0.25 nM.
`Cc1cc(C(=O)NCc2ccc(S(=O)(=O)Nc3ccc(C)c4c(C#N)c[nH]c34)cc2)ccc1-c1ccc(C2=N[C@@H](CC(=O)OC(C)(C)C)c3nnc(C)n3-c3sc(C)c(C)c32)cc1` [Example Compound 144, t-butyl [(6S)-4-{4′-[({4-[(3-cyano-4-methyl-1H-indol-7-yl)sulfamoyl]phenyl}methyl)carbamoyl]-2′-methyl[1,1′-biphenyl]-4-yl}-2,3,9-trimethyl-6H-thieno[3,2-f][1,2,4]triazolo[4,3-a][1,4]diazepin-6-yl]acetate] came in with a 50% inhibitory concentration (IC50) in experiment [1] of 1.2 nM. In experiment [2], this molecule showed a DC50 of 0.59 nM.
`CCc1ccc(NS(=O)(=O)c2ccc(CNC(=O)c3cnc(-c4ccc(C5=N[C@@H](CC(=O)OC)c6nnc(C)n6-c6sc(C)c(C)c65)cc4)cn3)cc2)c2[nH]cc(C#N)c12` [Example 105, methyl [(6S)-4-(4-{5-[({4-[(3-cyano-4-ethyl-1H-indol-7-yl)sulfamoyl]phenyl}methyl)carbamoyl]pyrazin-2-yl}phenyl)-2,3,9-trimethyl-6H-thieno[3,2-f][1,2,4]triazolo[4,3-a][1,4]diazepin-6-yl]acetate]: the midpoint of inhibition in experiment [1], the IC50, lay at 0.13 nM. Besides, the 50% degradation concentration (DC50) in experiment [2] worked out at 0.054 nM.
`COC(=O)C[C@@H]1N=C(c2ccc(-c3cnc(C(=O)NCc4ccc(S(=O)(=O)Nc5ccc(C)c6c(C#N)c[nH]c56)cc4)cn3)cc2)c2c(sc(C)c2C)-n2c(C)nnc21` [Example 65, methyl [(6S)-4-(4-{5-[({4-[(3-cyano-4-methyl-1H-indol-7-yl)sulfamoyl]phenyl}methyl)carbamoyl]pyrazin-2-yl}phenyl)-2,3,9-trimethyl-6H-thieno[3,2-f][1,2,4]triazolo[4,3-a][1,4]diazepin-6-yl]acetate] returned a concentration for half-maximal inhibition (IC50) in experiment [1] of 0.071 nM. In addition, the DC50 in experiment [2] is 0.036 nM.
Take `COC(=O)NC1N=C(c2ccc(-c3ccc(C(=O)NCc4ccc(S(=O)(=O)Nc5ccc(C)c6c(C#N)c[nH]c56)cc4)cc3)cc2)c2c(sc(C)c2C)-n2c(C)nnc21` (centres unmarked) [Example 36, methyl (4-{4′-[({4-[(3-cyano-4-methyl-1H-indol-7-yl)sulfamoyl]phenyl}methyl)carbamoyl][1,1′-biphenyl]-4-yl}-2,3,9-trimethyl-6H-thieno[3,2-f][1,2,4]triazolo[4,3-a][1,4]diazepin-6-yl)carbamate]: the IC50 in experiment [1] was determined as 1.4 nM. This molecule gave a half-maximal degradation concentration (DC50) in experiment [2] of 0.41 nM.
With `CCc1ccc(NS(=O)(=O)c2ccc(CNC(=O)c3ccc(-c4ccc(C5=N[C@@H](CC(=O)OC)c6nnc(C)n6-c6sc(C)c(C)c65)cc4)cn3)cc2)c2[nH]cc(C#N)c12` [Example 108, methyl [(6S)-4-(4-{6-[({4-[(3-cyano-4-ethyl-1H-indol-7-yl)sulfamoyl]phenyl}methyl)carbamoyl]pyridin-3-yl}phenyl)-2,3,9-trimethyl-6H-thieno[3,2-f][1,2,4]triazolo[4,3-a][1,4]diazepin-6-yl]acetate], the IC50 in experiment [1] was determined as 0.23 nM. The DC50 in experiment [2] amounted to 0.069 nM.
Turning to `CCc1ccc(NS(=O)(=O)c2ccc([C@@H](C)NC(=O)c3ccc(-c4ccc(C5=N[C@@H](CC(=O)OC)c6nnc(C)n6-c6sc(C)c(C)c65)cc4)cc3)cc2)c2[nH]cc(C#N)c12` [Example Compound 127, methyl [(6S)-4-(4′-{[(1R)-1-{4-[(3-cyano-4-ethyl-1H-indol-7-yl)sulfamoyl]phenyl}ethyl]carbamoyl}[1,1′-biphenyl]-4-yl)-2,3,9-trimethyl-6H-thieno[3,2-f][1,2,4]triazolo[4,3-a][1,4]diazepin-6-yl]acetate], the half-maximal inhibitory concentration (IC50) in experiment [1] was determined as 0.032 nM. Besides, in experiment [2], the DC50 came out at 0.024 nM.
For the molecule `CCc1ccc(NS(=O)(=O)c2ccc(CNC(=O)c3ccc(-c4ccc(C5=N[C@@H](CC(=O)OC)c6nnc(C)n6-c6sc(C)c(C)c65)cc4)cc3Cl)cc2)c2[nH]cc(C#N)c12` [Example 113, methyl [(6S)-4-{3′-chloro-4′-[({4-[(3-cyano-4-ethyl-1H-indol-7-yl)sulfamoyl]phenyl}methyl)carbamoyl][1,1′-biphenyl]-4-yl}-2,3,9-trimethyl-6H-thieno[3,2-f][1,2,4]triazolo[4,3-a][1,4]diazepin-6-yl]acetate], half-maximal inhibition in experiment [1] (IC50) required 0.3 nM. Moreover, in experiment [2], the 50% degradation concentration (DC50) was 0.33 nM.
With `CCc1ccc(NS(=O)(=O)c2ccc(CCNC(=O)c3ccc(-c4ccc(C5=N[C@@H](CC(=O)OC)c6nnc(C)n6-c6sc(C)c(C)c65)cc4)cc3)cc2)c2[nH]cc(C#N)c12` [Example Compound 128, methyl [(6S)-4-{4′-[(2-{4-[(3-cyano-4-ethyl-1H-indol-7-yl)sulfamoyl]phenyl}ethyl)carbamoyl][1,1′-biphenyl]-4-yl}-2,3,9-trimethyl-6H-thieno[3,2-f][1,2,4]triazolo[4,3-a][1,4]diazepin-6-yl]acetate], the IC50 in experiment [1] was determined as 0.074 nM. Further, the DC50 in experiment [2] was determined as 0.039 nM.
The matching figures for `COC(=O)C[C@@H]1N=C(c2ccc(-c3cnc(C(=O)NCc4ccc(S(=O)(=O)Nc5ccc(C)c6c(C#N)c[nH]c56)cc4)c(C)c3)cc2)c2c(sc(C)c2C)-n2c(C)nnc21` [Example 91, methyl [(6S)-4-(4-{6-[({4-[(3-cyano-4-methyl-1H-indol-7-yl)sulfamoyl]phenyl}methyl)carbamoyl]-5-methylpyridin-3-yl}phenyl)-2,3,9-trimethyl-6H-thieno[3,2-f][1,2,4]triazolo[4,3-a][1,4]diazepin-6-yl]acetate]: 0.26 nM and 0.029 nM.
In turn, `Cc1sc2c(c1C)C(c1ccc(-c3cc(Cl)c(C(=O)NCc4ccc(S(=O)(=O)Nc5ccc(C)c6c(C#N)c[nH]c56)cc4)cc3F)cc1)=N[C@@H](C)c1nnc(C)n1-2` [Example 71, 5-chloro-N-({4-[(3-cyano-4-methyl-1H-indol-7-yl)sulfamoyl]phenyl}methyl)-2-fluoro-4′-[(6S)-2,3,6,9-tetramethyl-6H-thieno[3,2-f][1,2,4]triazolo[4,3-a][1,4]diazepin-4-yl][1,1′-biphenyl]-4-carboxamide] registered an IC50 in experiment [1] of 0.61 nM. In experiment [2], this molecule came in with a DC50 of 0.32 nM.
